Test systems include MALME-3M melanoma; OVCAR-8 ovarian; SK-MEL-28 melanoma; A549 NSCLC; TK-10 renal; K-562 leukemia; OVCAR-3 ovarian; RXF 393 renal.
What all share (assay): growth of human tumour cells (NCI), 48 h

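Exposure lasted 48 hours, with cells grown in 96-well plates and compounds tested at five concentrations. TGI marks complete inhibition of growth.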 Some results are limits rather than exact numbers.

For `C#Cc1cccc(NC(=O)/C=C\C(=O)O)c1`, the TGI in the assay with MALME-3M melanoma, in the assay with OVCAR-8 ovarian, in the assay on SK-MEL-28 melanoma, in the assay on A549 NSCLC, with TK-10 renal and with K-562 leukemia was above 100 µM in each case.

Turning to `Cc1ccc(-n2c3nc(=O)n(C)c(=O)c-3nc3ccccc32)c(C)c1`, the TGI with OVCAR-3 ovarian worked out at 6.33 µM; in the assay with MALME-3M melanoma, 12.9 µM; with RXF 393 renal it was 34.5 µM; in the assay with OVCAR-8 ovarian it was 32.9 µM; in the assay with A549 NSCLC it was 20.4 µM; in the assay with TK-10 renal it was 27.2 µM. The molecule also displayed a TGI in the assay on K-562 leukemia of 40.6 µM.

For the molecule `CS(=O)(=O)OCCN1CCN(C(=O)c2ccc(Cl)c3c(Nc4ccc(S(=O)(=O)N=C(N)N)cc4)c4ccccc4nc23)CC1`, the TGI in the assay on OVCAR-3 ovarian, with MALME-3M melanoma, with RXF 393 renal, with OVCAR-8 ovarian, in the assay with SK-MEL-28 melanoma and with A549 NSCLC was above 100 µM in each case. For the same molecule, the TGI in the assay with TK-10 renal and in the assay with K-562 leukemia was above 100 µM throughout.

For the molecule `CCOC1c2nc3ccccc3nc2-c2ccccc2N1C(C)=O` (stereo not drawn), the TGI in the assay with OVCAR-3 ovarian, with RXF 393 renal, with OVCAR-8 ovarian, in the assay on SK-MEL-28 melanoma, in the assay with A549 NSCLC and with K-562 leukemia was above 100 µM in each case.

For the molecule `CC(C)(C)C1=NO[C@H]2[C@@H](NC(=O)c3ccccc3)CC[C@@H]12`, the TGI in the assay on OVCAR-3 ovarian, with MALME-3M melanoma, in the assay with RXF 393 renal, in the assay with OVCAR-8 ovarian, in the assay with SK-MEL-28 melanoma and in the assay on A549 NSCLC was above 100 µM in each case. In addition, the TGI in the assay with TK-10 renal and in the assay with K-562 leukemia was above 100 µM each time.

With `CC(C)(C)OC(=O)N[C@H]1CC(=O)c2ccccc2N(CC(=O)O)C1=O`, the TGI was above 100 µM with OVCAR-3 ovarian; 37.1 µM in the assay with MALME-3M melanoma; above 100 µM in the assay on RXF 393 renal; above 100 µM with OVCAR-8 ovarian; above 100 µM in the assay on SK-MEL-28 melanoma; above 100 µM in the assay on A549 NSCLC. Further, the TGI in the assay on TK-10 renal was above 100 µM.

Take `COC(=O)C1CCC(C)CC1=O` (stereo not drawn): the TGI with OVCAR-3 ovarian, in the assay with MALME-3M melanoma, in the assay on RXF 393 renal, in the assay on OVCAR-8 ovarian, in the assay on SK-MEL-28 melanoma and in the assay on A549 NSCLC was above 100 µM throughout. The TGI with TK-10 renal and with K-562 leukemia was above 100 µM throughout.

For `O=C1OC(=O)c2c1nc1ccccc1c2-c1ccccc1`, the TGI in the assay with MALME-3M melanoma, in the assay on RXF 393 renal, with OVCAR-8 ovarian, in the assay on A549 NSCLC, in the assay on TK-10 renal and in the assay on K-562 leukemia was above 100 µM throughout.

Regarding `CCc1c(OC(C)=O)c2c(NC3OC(COC(C)=O)C(OC(C)=O)C(OC(C)=O)C3OC(C)=O)nc(SC)nc2oc1=O` (stereo not drawn), the TGI in the assay with OVCAR-3 ovarian, in the assay with MALME-3M melanoma, in the assay on RXF 393 renal, with OVCAR-8 ovarian, in the assay on A549 NSCLC and in the assay with TK-10 renal was above 100 µM throughout. In the assay on K-562 leukemia, the TGI was above 100 µM.

For the molecule `CCC(Oc1ccc(OC)c2c1C(=O)CCC2)C(=O)O` (stereo not drawn), the TGI in the assay with OVCAR-3 ovarian, in the assay on MALME-3M melanoma, in the assay with RXF 393 renal, in the assay on OVCAR-8 ovarian, in the assay with SK-MEL-28 melanoma and in the assay on A549 NSCLC was above 100 µM in each case. Also, the TGI with TK-10 renal and with K-562 leukemia was above 100 µM throughout.

For the molecule `CNC(=O)OCc1nc(SSc2nc(COC(=O)NC)c(COC(=O)NC)n2C)n(C)c1COC(=O)NC`, the TGI in the assay on OVCAR-3 ovarian, in the assay on MALME-3M melanoma, in the assay with RXF 393 renal, with OVCAR-8 ovarian, in the assay with SK-MEL-28 melanoma and with A549 NSCLC was above 100 µM in each case. Further, the TGI in the assay with TK-10 renal and in the assay on K-562 leukemia was above 100 µM throughout.

As for `O=C1C2C(C(=O)N1Cc1ccccc1)N(Cc1ccccc1)C(=O)N2Cc1ccccc1` (stereo not drawn), the TGI in the assay on OVCAR-3 ovarian, in the assay on MALME-3M melanoma, in the assay with RXF 393 renal, with OVCAR-8 ovarian, in the assay on SK-MEL-28 melanoma and with A549 NSCLC was above 100 µM throughout. Moreover, the TGI in the assay with TK-10 renal and in the assay on K-562 leukemia was above 100 µM throughout.

Regarding `CCOC(=O)C1C(c2ccc(Br)cc2)N(Cc2ccccc2)C(c2ccc(Br)cc2)C(C(=O)OC)S1(=O)=O` (stereo not drawn), the TGI in the assay with OVCAR-3 ovarian was above 100 µM; in the assay with MALME-3M melanoma, above 100 µM; in the assay with RXF 393 renal, above 100 µM; in the assay with OVCAR-8 ovarian, 84.6 µM; in the assay with SK-MEL-28 melanoma, above 100 µM; in the assay on A549 NSCLC it was above 100 µM. For the same molecule, the TGI in the assay on TK-10 renal and with K-562 leukemia was above 100 µM throughout.

For `COS(=O)c1cc(Cl)cc(Cl)c1OC(=O)CSSCC(=O)Oc1c(Cl)cc(Cl)cc1S(=O)OC` (stereo not drawn), the TGI in the assay with OVCAR-3 ovarian turned out to be 86.4 µM; with MALME-3M melanoma, 42.4 µM; in the assay on RXF 393 renal it was 43.7 µM; with OVCAR-8 ovarian, 61.9 µM; in the assay on SK-MEL-28 melanoma, 33.8 µM; with A549 NSCLC, 47.2 µM. In addition, the TGI was 84 µM with TK-10 renal and 51.1 µM in the assay with K-562 leukemia.

`O=C([O-])c1ccc([I+]c2ccccc2)cc1`: the TGI in the assay on OVCAR-3 ovarian, with MALME-3M melanoma, with RXF 393 renal, in the assay on OVCAR-8 ovarian, in the assay with A549 NSCLC and in the assay on TK-10 renal was above 100 µM throughout. This molecule also had a TGI with K-562 leukemia above 100 µM.

Turning to `O=C1C=CC2(CCC23C=CC(=O)O3)O1` (stereo not drawn), the TGI in the assay with OVCAR-3 ovarian, in the assay with MALME-3M melanoma, in the assay with RXF 393 renal, with OVCAR-8 ovarian, in the assay on SK-MEL-28 melanoma and with A549 NSCLC was above 100 µM in each case. Further, the TGI in the assay on TK-10 renal and in the assay with K-562 leukemia was above 100 µM each time.

Source of the values: PubChem BioAssay (NCI).
